Measured values published in patent US10213413B2 (priority 2014, dated 2019).
Where two headings read alike, the source gives them in different places.

Key:
P-CTD/N-NTD interaction = target: T1, P-CTD/N-NTD interaction (Human respiratory syncytial virus A, UniProt P03418); test: Surface plasmon resonance competition assay (N-NTD binding to captured GST-P-CTD); parameters: species or system respiratory syncytial virus (RSV); details: 25° C., 20 mM TrisHCl pH 8, 150 mM NaCl, N-NTD 20 μM; read-out: Ki (inhibition of P-CTD/N-NTD interaction, SPR)
T1 construct: N N-terminal region (N-NTD, residues 31 to 252); made in house; host or cells: E. coli BL21(DE3)
Method: The assays were carried out at 25° C. in a buffer 20 mM TrisHCl, pH 8, 150 mM NaCl.
A goat anti-GST antibody (Biacore GST Capture Kit) was covalently coupled to a CMS sensorchip, using a Biacore 2000 instrument and the Amine Coupling Kit (GE Healthcare), reaching an immobilization density of around 10000 resonance units (RU; 1RU≈1 pg.mm-2). This surface was used to capture tightly GST-fused P-CTD to a density of 1200-1300 RU, or GST (800 RU) as a control. N-NTD (20 μM), alone or mixed and equilibrated for over 2 hours with the different inhibitor candidates (concentration range: 5-750 μM), was then injected over the GST-P-CTD and GST surfaces for one minute at a flow rate of […]. After each injection, the interaction buffer was flowed on the surface until all the N-NTD molecules dissociated (taking advantage of the transient nature of the N-NTD/P-CTD interaction). At the end of the series, the surfaces were regenerated with a 2-min 10 mM glycine-HCl (pH 1.5) wash and two 1-min washes with 0.05% SDS and 20 mM NaOH. The real-time interaction profiles were double referenced using the Scrubber 2.0 software (BioLogic Software), that is both the signals from the reference surface (with GST captured on the anti-GST antibody) and from blank experiments using the compounds alone were subtracted. The steady-state SPR responses (Req) were plotted against the compound concentration C and fitted using the BIAevaluation 4.1 software (GE Healthcare), according to the following equation:
[formula] where is the concentration of N-NTD (20 μM) and R0 the steady-state SPR response for N-NTD alone, allowing to determine the inhibition constants Ki for each compound. Isothermal Titration Calorimetry
SPR signals are proportional to the molecular weight of the analytes and therefore, given the small molecular weight of selected compounds, direct binding between N-NTD and BPdC would have too small signals on the used instrument. Instead, the inventors resorted to indirect competition assays to assess the effect of BPdC on the interaction between surface-bound P-CTD and N-NTD. The inventors first characterized by SPR the specific interactions between P-CTD in fusion with GST (GST-P-CTD) and N-NTD. GST-P-CTD was immobilized on an anti-GST antibody surface and serial dilutions of N-NTD were injected. The interaction between the two domains was transient, with a very fast dissociation rate (koff>1 s^−1) and a Kd of 30 μM. Competition experiments were then performed with the BPdC compounds. […] Both compounds carried a specific Cl substituent in ortho on the benzyl ring, but addition of another Cl atom in para position, on M76, somewhat enhanced inhibition. […] The inhibitory properties of the compounds were directly related to their affinities for N-NTD with M72<M61<M68<M81<M76.

N-NTD = target: T2, N-NTD (Human respiratory syncytial virus A, UniProt P03418); test: Isothermal titration calorimetry; format: binding, respiratory syncytial virus (RSV); details: 18° C.; for Kd: 20 mM Tris-HCl pH 8, 150 mM NaCl, 5% Ethanol, 30 μM N-NTD, read-out: Kd (ITC); for ΔH (binding enthalpy, ITC) / −TΔS (entropic contribution, ITC): 1:1 interaction model
T2 construct: N N-terminal region (N-NTD, residues 31 to 252); made in house; host or cells: E. coli BL21(DE3)
Method: ITC experiments were performed using the high precision VP-ITC system (MicroCal, GE Healthcare) and quantified with the Origin7 software provided by the manufacturer. All molecules were dissolved in 20 mM Tris-HCl, pH 8, 150 mM NaCl, 5% Ethanol and the binding enthalpies were measured by injecting the M76 or M61 solutions at 1.5 mM into calorimetric cell containing 30 μM N-NTD solution. Titrations were performed at 18° C. with 7 μl injections of M76 or M61 ligands every 350s. Heat signals were corrected for the heats of dilution and normalized to the amount of compound injected. Binding stoichiometries, enthalpy values and equilibrium dissociation constants were determined by fitting the corrected data to a 1:1 interaction model using the Origin7 software (OriginLab).
In parallel, the inventors investigated the properties of binding abilities of the di-substituted M76- and unsubstituted M61 to N-NTD by ITC. The purified N-NTD domain was loaded into the calorimeter cell and titrated with the compounds.

[1] = target: T3, N-NTD (N N-terminal region, residues 31 to 252) (Human respiratory syncytial virus A, UniProt P03418); test: NMR chemical shift perturbation titration (1H,15N-HSQC), dissociation constants; format: binding, respiratory syncytial virus (RSV); details: 50 μM 15N-labeled N-NTD, two-site fast exchange model, 1:1 stoichiometry
T3 construct: N N-terminal region (N-NTD, residues 31 to 252); made in house; host or cells: E. coli BL21(DE3)
Method: N-NTD samples uniformly labeled with stable isotopes for NMR measurements were produced in minimal M9 medium supplemented with 1 g/L ^15NH4Cl and 3 g/L unlabeled or ^13C-glucose. The protocols were adapted from rich medium: an initial preculture of 15 mL in LB medium was used to inoculate a 500 mL M9 culture grown to saturation, and 500 mL of fresh M9 medium were added before induction. Purification was carried out as described above and followed by a final dialysis step to exchange the sample into NMR buffer (20 mM MES pH 6.5, 250 mM NaCl, 1.5 mM TCEP). A U-^13C, ^15N, 70%-^2H labeled N-NTD sample was prepared by starting from a 100 mL preculture in LB medium, used to inoculate 1 L of unlabeled M9. […]
Chemical shift perturbation (CSP) experiments were carried out with 50 μM U-^15N labeled N-NTD on a 700 MHz Bruker Avance III spectrometer equipped with a TXI probe by adding increasing amounts of M61, M68, M72, M76 and M81 from concentrated stock solutions (25, 10 or 5 mM) in ethanol. […] Dissociation constants were determined for a given residue, assuming a two-site fast exchange model with a 1:1 stoichiometry, by fitting the chemical shift difference (δ−δfree) as a function of molar ratios in Origin 7 software (OriginLab).
Combined ^1H and ^15N CSPs were calculated from: Δδ^1H^15N=√{square root over ((δ1H−δ1H^free)^2+(δ15N−δ15N^free)^2/100)}. […]

rHRSV-mCherry = format: cell-based, recombinant human RSV; details: 48 h, HEp-2 cells
Method: (§1) DMSO dilutions in the same range were also used as controls. HEp-2 cells (ATCC number CCL-23) were seeded at 5×10^4 cells per well in 96-well plates the day before. Infection was carried out with 500 pfu of rHRSV-mCherry in MEM without phenol red. 2 h after infection, the medium was changed to MEM with 2% fetal calf serum and without phenol red. Compound dilutions were pre-incubated with viral suspensions for 5 min at 37° C. before addition on cell monolayers in the 96-well plates.
Fluorescence, expressed in relative fluorescence units, was measured using a spectrofluorimeter (Tecan infinite M200PRO) with excitation and emission wavelengths of 580 and 620 nm, respectively. Non-infected HEp-2 cells were used a standard for fluorescence background level.

HEp-2 cells = test: CellTiter-Glo Luminescent cell viability assay (cytotoxicity); format: cell-based; details: 48 h
Method: as §1, with “Compound M76b was solubilized at 10 mM in 100% v/v DMSO and further diluted in water to 1 mM, then serially diluted threefold in minimum essential medium (MEM) without phenol red (Gibco) to a final concentration of 5 nM. DMSO” for “DMSO”, “plates. After treatment with compound M76b in DMSO or with DMSO alone, plates were incubated at 37° C. and 5% CO2 for 48 h.” for “plates.”
Cytotoxicity was assayed with the CellTiter-Glo Luminescent cell viability assay (Promega) after 48 h of incubation with DMSO alone or threefold dilutions of compound M76 in DMSO from 1 mM to 12 μM.

T1 sequence (P03418 31-252): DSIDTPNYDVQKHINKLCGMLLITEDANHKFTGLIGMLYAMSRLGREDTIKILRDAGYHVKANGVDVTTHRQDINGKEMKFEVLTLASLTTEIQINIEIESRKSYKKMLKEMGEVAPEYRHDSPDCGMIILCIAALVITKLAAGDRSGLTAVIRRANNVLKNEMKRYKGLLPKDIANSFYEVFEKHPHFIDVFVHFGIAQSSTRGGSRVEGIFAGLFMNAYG
T2 sequence (P03418 31-252): as above
T3 sequence (P03418 31-252): as above

| SMILES | Ki (P-CTD/N-NTD interaction) | Kd (N-NTD) | ΔH (binding enthalpy, ITC) (N-NTD) | −TΔS (entropic contribution, ITC) (N-NTD) | Kd [1] | other results |
| --- | --- | --- | --- | --- | --- | --- |
| O=C(O)c1cc(C(=O)O)n(Cc2ccccc2)n1 [M61, 1-(Benzyl)-pyrazole-3,5-dicarboxylate] | 893 ± 86 µM | 510 ± 170 µM | -6.42 ± 2.42 kcal/mol | 2.2 ± 1.8 kcal/mol | – | – |
| O=C(O)c1cc(C(=O)O)n(Cc2ccc(Br)cc2)n1 [M68, 1-(4-bromoBenzyl)-pyrazole-3,5-dicarboxylate] | 610 ± 82 µM | – | – | – | – | – |
| O=C(O)c1cc(C(=O)O)n(Cc2ccc(F)cc2)n1 [M72, 1-(4-fluoroBenzyl)-pyrazole-3,5-dicarboxylate] | 1660 ± 290 µM | – | – | – | 680 µM | – |
| O=C(O)c1cc(C(=O)O)n(Cc2ccc(Cl)cc2Cl)n1 [M76, 1-(2,4-dichloroBenzyl)-pyrazole-3,5-dicarboxylate] | 155 ± 25 µM | 48 ± 8 µM | -11.0 ± 3.6 kcal/mol | 5.4 ± 3.8 kcal/mol | 20 µM | – |
| CC(=O)OCOC(=O)c1cc(C(=O)OCOC(C)=O)n(Cc2ccc(Cl)cc2Cl)n1 [M76b] | – | – | – | – | – | relative fluorescence (rHRSV-mCherry; 111 μM, relative to control without M76b and DMSO): 40%; relative fluorescence (rHRSV-mCherry; 333 μM, relative to control without M76b and DMSO): less than 20%; relative fluorescence (rHRSV-mCherry; concentrations under 12 μM): above 80%; cell survival (HEp-2 cells; 111 μM): more than 95%; cell survival (HEp-2 cells; 333 μM): 25% |
| O=C(O)c1cc(C(=O)O)n(Cc2ccccc2Cl)n1 [M81, 1-(2-chloroBenzyl)-pyrazole-3,5-dicarboxylate] | 247 ± 39 µM | – | – | – | – | – |
